Here are results for 81 compounds from the METLIN SMRT retention time set (Domingo-Almenara et al. 2019).

The data set in a line: gradient 5% acetonitrile 3 min, to 50% in 2 min, to 85% in 15 min, held 3 min, 100 µL/min. The conditions noted are these: column: Zorbax Extend-C18 2.1 x 50 mm; eluents: water / acetonitrile, 0.1% formic acid. The essentials:
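Data were gathered over 3 months by HPLC coupled to a quadrupole time-of-flight mass spectrometer, operated in positive and negative ionization mode. Mixtures of ~100 pure standards ran on a Zorbax Extend-C18 column (2.1 × 50 mm, 1.8 μm) at 100 μL/min, with water and acetonitrile each containing 0.1% formic acid and dead and dwell volumes of 40 μL and 900 μL. Retention time was read from adduct peaks picked by computer and checked manually.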
With `CCS(=O)(=O)Nc1cc(-c2nnc(C)o2)sc1C`, the RP-LC retention time stood at 738 s.
With `O=C(NCc1cccnc1)C1c2ccccc2C(=O)N(C2CCCC2)C12CCCCC2` (stereo unspecified) the figure was 677 s.
With `O=C(Nc1cnc(N2CCCCCC2)nc1)c1cccs1` the figure was 859 s.
The compound `O=C(Nc1cccc(Cl)c1F)N1CCCC(Cn2c(C3CC3)nc3cccnc32)C1` (stereo unspecified) yielded an RP-LC retention time of 723 s.
`COC(=O)c1ccc2c(c1)nnn2Cc1cccc(OC)c1` returned an RP-LC retention time of 880 s.
The result for `COc1cc(=O)n(-c2ccccc2C)nc1C(=O)Nc1ccc(OC(F)(F)F)cc1` reads 880 s; that for `CN1CCN(CCCNC(=O)C2CCN(c3nc4cccnc4s3)CC2)CC1`, 558 s.
With `Cn1c(=O)cc(N2CCC[C@@H](N)C2)n(Cc2ccccc2C#N)c1=O` the figure was 641 s; with `CNc1cc(NS(=O)(=O)c2ccc(N)cc2)nc(NC)n1`, 370 s.
With `CCOc1ccc(CNC(=O)c2c(C)sc3ccn(C)c(=O)c23)cc1` the figure was 786 s; with `CCN1CCN(CCNC(=O)Cn2c(=O)c3cccn3c3ccc(F)cc32)CC1`, 589 s; with `COc1ccc(C(=O)Nc2ccc3c(c2)N(C(=O)C2CCCO2)CC3)c(OC)c1OC` (stereo unspecified), 615 s.
With `Cc1ccc(Nc2c(-c3ccc(O)cc3)nc3cc(C)ccn23)cc1`, the RP-LC retention time came to 696 s.
The compound `Cc1cc(C)n2c(Nc3ccccc3)c(-c3ccccc3)nc2n1` returned an RP-LC retention time of 671 s.
The result for `CC(C)c1cc(-c2ccc(F)c3ccccc23)nc(N)n1` reads 882 s.
The result for `Cc1nc(C(=O)N2CCCCCC2c2nnc(C)o2)co1` (stereo unspecified) reads 649 s; that for `Cc1ccc(Cn2c(=O)c(N3CCN(C(=O)NCC4CCCO4)CC3)nc3cccnc32)cc1` (stereo unspecified), 935 s.
The compound `CC(=O)c1ccc(NC(=O)N2C[C@@H]3C[C@H](NC(=O)c4cccnc4)[C@H]2C3)cc1` registered an RP-LC retention time of 627 s.
The result for `CC12CC(NC(=O)N1c1cccc(C(=O)Nc3ccc4c(c3)OCCO4)c1)c1ccccc1O2` (stereo unspecified) reads 830 s; that for `COc1ccc2[nH]cc(CCNC(=O)CN3C(=O)CCn4nc(-c5cn(C)c6ccccc56)cc43)c2c1`, 797 s.
Take `O=C(Cc1c[nH]c2ccccc12)N1CCCN(C2CCN(CC3CC3)C2=O)CC1` (stereo unspecified): the RP-LC retention time stood at 610 s.
With `CCCNC(=O)N1CCCC1c1nc(-c2ccccc2)no1` (stereo unspecified) the figure was 816 s; with `CSc1ccc(-c2noc(Cc3nnc(-c4cc(F)cc(F)c4)o3)n2)cc1`, 1100 s; with `COC(=O)c1ccc(-c2nc3cnccn3c2Nc2c(C)cccc2C)cc1`, 914 s.
With `Cc1nn2c(S(=O)(=O)N3CCSCC3)c(C(C)C)nc2s1` the figure was 862 s; with `CCOC(=O)Cc1ccc(NC(=O)NC2CCN(c3ccc(F)cc3)C2=O)cc1` (stereo unspecified), 812 s; with `CCCCN1C(=O)C(C)(C(=O)Nc2ccc(OCC)cc2)Oc2cccnc21` (stereo unspecified), 1060 s.
The result for `O=c1c2cc(-c3ccc(F)cc3)nn2ccn1CC(O)c1ccc2c(c1)OCO2` (stereo unspecified) reads 864 s.
`CCOc1nc2ccccc2nc1N1CCCC(C(=O)Nc2cccc(F)c2)C1` (stereo unspecified) yielded an RP-LC retention time of 1200 s.
The result for `CCC(=O)N1CCc2cc(CNC(=O)c3ccnn3C)ccc21` reads 665 s; that for `CCC(CC)C(=O)N1CCC(N2CCN(CC)C2=O)CC1`, 686 s.
With `Cc1nn2c(CNS(=O)(=O)Cc3ccc(Cl)cc3)c(-c3ccccc3)nc2s1` the figure was 954 s; with `O=C(NC1CC1)C1CCN(C(=O)c2ncn3c2COC(c2ccc(Cl)cc2)C3)CC1` (stereo unspecified), 713 s.
The result for `COC(=O)c1ccc(-c2csc(NC(=O)C3CCCC3)n2)cc1` reads 942 s; that for `CCn1cc(C2=CCN(C(=O)Nc3ccc(OC)c(OC)c3)CC2)c2cccnc21`, 759 s.
As for `CCn1cc(C(=O)Nc2cccc(C)c2C)c2cccnc21`, the RP-LC retention time worked out at 854 s.
The result for `CCCn1c(=O)c(C)nc2cc(-c3noc(CNS(=O)(=O)c4ccccc4)n3)ccc21` reads 853 s; that for `Fc1ccc(Nc2nc(-c3cccc(Cl)c3)cs2)nc1`, 1190 s.
With `CC(=O)NCc1csc(C2CCN(C(=O)COc3ccc(Cl)cc3)CC2)n1`, the RP-LC retention time is 708 s.
With `O=C(Cn1nc2n(c1=O)CCCC2)N1CCN(c2ccccc2)CC1` the figure was 638 s; with `Cc1sc(NC(=O)c2cccc(F)c2)nc1-c1ccccc1`, 1150 s.
With `COc1ccc(CC(=O)Nc2cccc(-c3cn4cccnc4n3)c2)cc1` the figure was 610 s; with `CSc1ccc(-c2nc3nc(C)cc(C)n3c2Nc2ccc(C)cc2)cc1`, 810 s.
The result for `Cn1ncc2c3ccccc3n(CC(=O)N3CCN(C4CCCCC4)CC3)c2c1=O` reads 622 s; that for `Cc1cc(F)ccc1NS(=O)(=O)c1ccc2c(c1)C(=O)N(C)c1ncccc1O2`, 924 s; that for `CCCc1nc(-c2ccccc2)oc1CC(=O)N1CCN(c2ccccc2F)CC1`, 1090 s.
The compound `CCCNC(=O)C1CCCN(c2nc3ccsc3c(=O)n2-c2ccc(C)cc2)C1` (stereo unspecified) gave an RP-LC retention time of 1250 s.
In turn, `Cc1cc(C)cc(NS(=O)(=O)c2cc3c4c(c2)CCC(=O)N4CCC3)c1` displayed an RP-LC retention time of 874 s.
As to `CN(C)S(=O)(=O)Nc1cccc(Br)c1`, the RP-LC retention time was found to be 898 s.
The result for `Cc1nc2cc(N3CCC(C(=O)O)CC3)cnc2nc1C` reads 611 s; that for `Cc1nn(-c2ccc(F)cc2)c(C)c1S(=O)(=O)N1CCC(C(=O)N2CCCCC2)CC1`, 914 s.
The result for `Cn1nc(-c2ccccc2)c2ccccc2c1=O` reads 799 s; that for `COc1cccc(NC(=O)Cn2nc3c(Oc4cccc(F)c4)nccn3c2=O)c1`, 839 s.
The result for `CCc1ccccc1NC(=O)C1CCN(c2nnc3ccccn23)CC1` reads 660 s; that for `CCn1nc(-c2nc(-c3ccc(Cl)cc3)no2)ccc1=O`, 1030 s.
The compound `CCOC(=O)C1=C(C)NC2=C(C(=O)C(C(=O)OC)C(C)C2)C1c1ccccc1Cl` (stereo unspecified) had an RP-LC retention time of 965 s.
The result for `O=C(CSc1ccc2nnc(-c3cccs3)n2n1)NCc1ccc(F)cc1` reads 655 s; that for `CCn1cnc(S(=O)(=O)N2CCC(C(=O)NCc3ccc(OC)cc3)CC2)c1`, 674 s; that for `CCOC(=O)c1ccc(NC(=O)c2cnn(-c3ccc(Br)cc3)c2)cc1`, 1070 s.
The result for `Cc1c(C(=O)N2CCC(C)CC2)c(S(=O)(=O)N2CCN(c3ccccn3)CC2)c(C)n1C` reads 664 s; that for `COc1ccc(OC)c(-c2nc(Nc3ccc(C)c(Cl)c3)sc2CC(=O)O)c1`, 972 s; that for `CCN1CCN(c2ncc(N3CCC(C(=O)NCc4cccs4)CC3)cn2)CC1`, 603 s.
The result for `O=C(Cn1cccc(-c2nc(-c3ccc(F)cc3)no2)c1=O)Nc1ccc(F)cc1` reads 878 s; that for `CCc1nc2ccccc2c(=O)n1Cc1noc(-c2ccc(OC)c(OC)c2)n1`, 894 s; that for `CCN(CC)CCNC(=O)CCc1c(-c2ccc(Cl)cc2)nc2ccccn12`, 558 s.
The compound `Cc1ccc(-c2noc(CN3C(=O)C(C)Oc4ccccc43)n2)cc1` (stereo unspecified) displayed an RP-LC retention time of 1120 s.
As for `Cc1ncn(CC(=O)Nc2ccc(F)cc2F)c(=O)c1C`, the RP-LC retention time is 642 s.
In the case of `Nc1c(C(=O)Nc2ccc([N+](=O)[O-])cc2)oc2ccccc12`, the RP-LC retention time is 880 s.
The result for `Cc1ccc(NC(=O)N2CCC3(C2)C(=O)N(C)c2ccccc23)cc1` (stereo unspecified) reads 814 s.
The result for `Cn1c(C2CCN(C(=O)c3cc4c(s3)CCCC4)C2)nc2cccnc21` (stereo unspecified) reads 797 s.
Take `COc1ccc(-c2cn3c(CC(=O)N4CCN(Cc5ccccc5)CC4)csc3n2)cc1OC`: the RP-LC retention time turned out to be 596 s.
`CCOc1ccc(S(=O)(=O)N2CCC3(CCC(CN4CCN(C)CC4)O3)CC2)cc1` (stereo unspecified) yielded an RP-LC retention time of 611 s.
In turn, `CCn1ccc2c(cc(C(=O)Nc3ccc(F)cc3C)n2C)c1=O` returned an RP-LC retention time of 726 s.
The result for `Cc1cc(C)c(NS(=O)(=O)c2c(C)cc(C)cc2C)c(C)c1` reads 1120 s; that for `CSc1ccc(-c2noc(Cn3c(=O)n(-c4ccccc4F)c(=O)c4sccc43)n2)cc1`, 1040 s.
With `CC(=O)N1CCc2ccccc2C1C(=O)N1CCN(c2ccccn2)CC1` (stereo unspecified) the figure was 587 s; with `COc1cccc(Cc2nc(Cc3nc(-c4ccccc4)oc3C)no2)c1`, 1090 s; with `COc1ccc(N2CCN(C(=O)COc3nccc(C)n3)CC2)cc1`, 617 s.
The result for `Cc1ccc(CNC(=O)c2cc3sccc3n2Cc2ccc(Cl)cc2)cc1` reads 1200 s; that for `O=C(COc1cccc(Cl)c1)N1CCN(c2nc(CN3CCCCC3)cs2)CC1`, 681 s.
For the compound `Cc1cc(C)nc(Nc2nc(-c3ccccc3)c(CC(=O)O)s2)n1`, the RP-LC retention time was found to be 710 s.
